The source of these data is patent US12172971B1, “N′-(2-naphthoyloxy)-2-(benzo[d]oxazol-2-yl)acetimidamide as an antimicrobial compound” (priority 2023, dated 2024).

The assay relates to Bacillus cereus, Staphylococcus aureus, Pseudomonas aeruginosa, Escherichia coli, Aspergillus flavus, Chrysosporium keratinophilum. The assay can be described thus: agar plate disc-diffusion antimicrobial test. The class given is cell-based. Particulars: discs wetted with 10 μL of 10 mg/mL in DMSO; 37° C., 48 h, 72 h for fungi; gram positive and gram-negative bacteria and fungi. As for the experimental part: The agar plate disc-diffusion method was applied. Sterilized filter papers (6 mm in diameter) were wetted with 10 μL of a solution of N′-(2-naphthoyloxy)-2-(benzo[d]oxazol-2-yl)acetimidamide (3) to be tested, containing 10 mg/mL in DMSO, and the discs were allowed to air dry. The discs were then placed onto the surface of agar plates (nutrient agar for bacteria and Sabouraud's dextrose agar for fungi) seeded with the test organism. Each plate contained 15 mL of the agar medium, previously seeded with 0.2 mL of the broth culture of each organism pregrown for 18 hours. The plates were incubated at 37° C. for 48 h, and 72 h for fungi. The inhibition zones were measured in mm. Discs impregnated with DMSO were used as a control, and its inhibition zone was subtracted from the tested compound actual inhibition zone. […] The antibacterial activity was screened against gram positive bacteria namely Bacillus cereus and Staphylococcus aureus and gram-negative bacterial strains namely Pseudomonas aeruginosa and Escherichia coli, while the antifungal activity was screened against Aspergillus flavus and Chrysosporium keratinophilum.

Take `N/C(Cc1nc2ccccc2o1)=N\OC(=O)c1ccc2ccccc2c1` [compound 3, N′-(2-naphthoyloxy)-2-(benzo[d]oxazol-2-yl)acetimidamide]: the “antimicrobial activity (disc-diffusion inhibition zones)” value is “high antimicrobial activities”.
